Structures are written as SMILES. Read-outs that look alike come from different tables or passages of the source.

Experiment [1] addresses NMDA receptor glycine site, rat cortical membranes (Rattus norvegicus (Rat), UniProt P35439). The experiment can be described thus: [3H] MK-801 binding assay (potentiation of [3H]MK-801 binding). On the procedure: Assays were conducted as described in Moskal et al. (Moskal, J. R., Kuo, A. G., Weiss, C., Wood, P. L., O'Connor Hanson, A., Kelso, S., Harris, R. B., Disterhoft, J. F., 2005. GLYX-13: a monoclonal antibody-derived peptide that acts as an N-methyl-D-aspartate receptor modulator. Neuropharmacology. 49, 1077-87) The potentiation of [^3H]MK-801 binding (5 nM; 22.5 Ci/mmol) to well washed rat cortical membranes (200 μg) was measured under non-equilibrium conditions (15 min @ 25° C.) in the presence of increasing concentrations of test compounds and […]. Zero levels were determined in the absence of any glycine ligand and in the presence of 30 μM 5.7 DCKA. Maximal stimulation was measured in the presence of 1 mM glycine, and 500 μM glutamate was present in all samples. The facilitation of [^3H]MK-801 binding by tests compounds was calculated by using a 3 parameter log agonist vs. response equation (Graph pad Prism, USA) and potency (EC50, expressed in pM) and maximal activity (% maximal stimulation) were calculated for the test compound.

A short description of experiment [2]: Porsolt test, floating time inhibition. Format: in vivo. The note with it: 1 hour post dose.
For experiment [3], the system named is hippocampal slices, Schaffer collateral-CA1. As to the kind of experiment: Long term potentiation in hippocampal slices. It is filed as cell-based, rat. The note with it: for LTP: LTP Augmentation (%): Table 4. As for the experimental part: Assays were conducted as described in Zhang et al. (Zhang, X. L., Sullivan, J. A., Moskal, J. R., Stanton, P. K., 2008. A NMDA receptor glycine site partial agonist, GLYX-13, simultaneously enhances LTP and reduces LTD at Schaffer collateral-CA1 synapses in hippocampus. Neuropharmacology. 55, 1238-50) Sprague-Dawley rats (12-18 days old; Taconic Farms) were deeply anesthetized with isoflurane and decapitated. Rat brains were removed rapidly, submerged in ice-cold artificial cerebrospinal fluid (ACSF, 2-4° C.), which contained (in mM): 124 NaCl, 4 KCl, 2 MgSO4, 2 CaCl2, 1.25 NaH2PO4, 26 NaHCO3, 10 glucose; at pH 7.4, gassed continuously with 95% O2/5% CO2). The rat brains were hemisected, the frontal lobes cut off, and individual hemispheres glued using cyanoacrylate adhesive onto a stage immersed in ice-cold ACSF gassed continuously with 95% O2/5% CO2 during slicing. Coronal slices (400 μm thick) were cut using a Vibratome (Leica VT1200S), and transferred to an interface holding chamber for incubation at room temperature for a minimum of one hour before transferring to a Haas-style interface recording chamber continuously perfused at 3 ml/min with oxygenated ACSF at 32±0.5° C. Low resistance recording electrodes were made from thin-walled borosilicate glass (1-2 MΩ after filling with ACSF) and inserted into the apical dendritic region of the Schaffer collateral termination field in stratum radiatum of field CA1 region to record field excitatory postsynaptic potentials (fEPSPs). A bipolar stainless steel stimulating electrode (FHC Co.) was placed on Schaffer collateral-commissural fibers in CA3 stratum radiatum, and constant current stimulus intensity adjusted to evoke approximately half-maximal fEPSPs once each 30 s ([…]; 100 μs duration). fEPSP slope was measured before and after induction of LTP by linear interpolation from 20 to 80% of maximum negative deflection, and slopes confirmed to be stable to within ±10% for at least 15 min before commencing an experiment. […] LTP was induced by stimulation of Schaffer collateral axons with four high frequency theta burst stimulus trains of 10×100 Hz/5 pulse bursts each, applied at an inter-burst interval of 200 ms. Each train was 2 seconds in duration, and trains were applied 15 seconds apart. The signals were recorded using a Multiclamp 700B amplifier and digitized with a Digidata 1322 (Axon Instruments, USA). Data were analyzed using pClamp software (version 9, Axon Instruments) on an IBM-compatible personal computer.

Setting [4] is: Table 4, rat cortex, read-out: MK-801 Glycine Site Binding Assay: Rat Cortex EC50.
The mark [5] stands for this setting: Table 3, read-out: [3H] MK-801 binding assay: EC50.

Take `C[C@@H](O)[C@@H](C(N)=O)N1CC2(CCCN2C(=O)OC(C)(C)C)C1=O` (stereo partly drawn) [Compound 2S-FNL-2, tert-butyl 2-((2S,3R)-1-amino-3-hydroxy-1-oxobutan-2-yl)-1-oxo-2,5-diazaspiro[3,4] octane-5-carboxylate]: in experiment [1] (setting [4]), the EC50 is 20 nM.
Consider `C[C@@H](O)[C@@H](C(N)=O)N1CC2(CCCN2)C1=O` (stereo partly drawn) [Compound 2S-FNL-3, (2S,3R)-3-hydroxy-2-(1-oxo-2,5-diazaspiro[3.4]octan-2-yl) butanamide], for which the “Unified Activity Data: Porsolt Floating Time Inhibition (Percent)” value in experiment [2] (3 mg/kg IV) is 80%. The EC50 in experiment [1] (setting [5]) was 54.3 nM. Also, the “Unified Activity Data: LTP Augmentation (Percent)” value in experiment [3] (LTP concentration 1 uM) is on record as 130%.
As to `CC(N)C(C(N)=O)N1CC2(CCCN2)C1=O` (stereo not drawn) [Compound 2S-FNL-7, 3-amino-2-(1-oxo-2,5-diazaspiro[3.4]octan-2-yl)butanamide], the EC50 in experiment [1] (setting [5]) came to 11 nM.
Take `C[C@@H](O)[C@@H](C(=O)NCc1ccccc1)N1CC2(CCCN2C(=O)OC(C)(C)C)C1=O` (stereo partly drawn) [Compound 2S-FNL-10, tert-butyl 2-((2S,3R)-1-(benzylamino)-3-hydroxy-1-oxobutan-2-yl)-1-oxo-2,5-diazaspiro[3.4] octane-5-carboxylate]: in experiment [1] (setting [4]), the EC50 came to 0.00119 nM. The “LTP: LTP Augmentation (%)” value in experiment [3] (LTP concentration 1 uM) is listed as 90%.
As to `C[C@@H](O)[C@@H](C(=O)NCc1ncno1)N1CC2(CCCN2C(=O)OC(C)(C)C)C1=O` (stereo partly drawn) [Compound 2S-FNL-14, tert-butyl 2-((2S,3R)-1-(((1,2,4-oxadiazol-5-yl)methyl)amino)-3-hydroxy-1-oxobutan-2-yl)-1-oxo-2,5-diazaspiro[3.4] octane-5-carboxylate], the EC50 in experiment [1] (setting [4]) amounted to 0.0613 nM. Besides, in experiment [3] (LTP concentration 1 uM), the “LTP: LTP Augmentation (%)” value was determined as 120%.
Take `NC(=O)[C@H](CO)N1CC2(CCCN2)C1=O` (stereo partly drawn) [Compound 2S-FNL-21, (2S)-3-hydroxy-2-(1-oxo-2,5-diazaspiro[3.4]octan-2-yl)propanamide]: the “Unified Activity Data: LTP Augmentation (Percent)” value in experiment [3] (LTP concentration 0.1 uM) was determined as 80%.
Consider `CC(=O)O[C@H](C)[C@@H](C(=O)N1CCCC1)N1CC2(CCCN2)C1=O` (stereo partly drawn) [Compound 2S-FNL-27, (2R,3S)-4-oxo-3-(1-oxo-2,5-diazaspiro[3.4]octan-2-yl)-4-(pyrrolidin-1-yl) butan-2-yl acetate], for which the EC50 in experiment [1] (setting [5]) stood at 0.00349 nM.
In the case of `CC1CCC2(CN([C@H](C(N)=O)[C@@H](C)O)C2=O)N1C(=O)OC(C)(C)C` (stereo partly drawn) [Compound 2S-FNL-33, tert-butyl 2-((2S,3R)-1-amino-3-hydroxy-1-oxobutan-2-yl)-6-methyl-1-oxo-2,5-diazaspiro[3.4] octane-5-carboxylate], the EC50 in experiment [1] (setting [4]) is 18.9 nM. In addition, the “LTP: LTP Augmentation (%)” value in experiment [3] (LTP concentration 1 uM) was 140%.
For `CC1CCC2(CN([C@H](C(N)=O)[C@@H](C)O)C2=O)N1` (stereo partly drawn) [Compound 2S-FNL-34, (2S,3R)-3-hydroxy-2-(6-methyl-1-oxo-2,5-diazaspiro[3.4]octan-2-yl) butanamide], in experiment [2] (1 mg/kg PO), the “Unified Activity Data: Porsolt Floating Time Inhibition (Percent)” value was determined as 73%. In addition, the “Unified Activity Data: LTP Augmentation (Percent)” value in experiment [3] (LTP concentration 0.1 uM) came out at 100%.
For the compound `CC1CCC2(N1)C(=O)N([C@H](C(=O)N1CCCC1)[C@@H](C)O)C2C` (stereo partly drawn) [Compound 2S-FNL-38, 2-((2S,3R)-3-hydroxy-1-oxo-1-(pyrrolidin-1-yl)butan-2-yl)-3,6-dimethyl-2,5-diazaspiro[3.4]octan-1-one], the EC50 in experiment [1] (setting [4]) amounted to 3.31 nM.
As to `C[C@@H](O)[C@@H](C(N)=O)N1CC2(CCCN2)C1=O` (stereo partly drawn) [Compound X, (2S,3R)-3-hydroxy-2-(1-oxo-2,5-diazaspiro[3,4]octan-2-yl)butanamide], the Emax – broadly, the maximal effect, on the per cent scale that the assay sets – in experiment [1] (maximal stimulation measured with 1 mM glycine) was found to be 38%. The pEC50 (usually the EC50 on a negative log10 scale, so that one unit is a factor of ten) in experiment [1] (rat cortical membranes, 50 μM glutamate) is 7.4. In addition, the EC50 in experiment [1] (rat cortical membranes, 50 μM glutamate, read-out: pEC50 (converted)) is 39.8 nM. Also, the “long-term potentiation after high frequency stimulation of Schaffer collateral-evoked NMDA e.p.s.c.s in CA1 pyramidal neurons” value in experiment [3] (tested at 1 μM, FIG. 2) is “increased long-term potentiation”.

These data come from patent US12167998B2, “Spiro-lactam NMDA receptor modulators and uses thereof” (Tenacia Biotechnology (Hong Kong) Co., Limited, priority 2013, dated 2024).
